Test results published in patent EP3478687B1 (Daewoong Pharmaceutical Co., Ltd., priority 2016, dated 2018).

Legend:
[1] = biological target: T1, Recombinant purified human JAK3 (Homo sapiens, UniProt P52333); assay: JAK3 kinase inhibitory activity, ADP-Glo kinase assay (Promega V9441); assay type: biochemical; settings: ATP 5 uM, 4 ng JAK3 per reaction, 1 hour 30 °C, chemiluminescence
T1 construct: purchased Promega V9441
T1 sequence (P52333 1-1124): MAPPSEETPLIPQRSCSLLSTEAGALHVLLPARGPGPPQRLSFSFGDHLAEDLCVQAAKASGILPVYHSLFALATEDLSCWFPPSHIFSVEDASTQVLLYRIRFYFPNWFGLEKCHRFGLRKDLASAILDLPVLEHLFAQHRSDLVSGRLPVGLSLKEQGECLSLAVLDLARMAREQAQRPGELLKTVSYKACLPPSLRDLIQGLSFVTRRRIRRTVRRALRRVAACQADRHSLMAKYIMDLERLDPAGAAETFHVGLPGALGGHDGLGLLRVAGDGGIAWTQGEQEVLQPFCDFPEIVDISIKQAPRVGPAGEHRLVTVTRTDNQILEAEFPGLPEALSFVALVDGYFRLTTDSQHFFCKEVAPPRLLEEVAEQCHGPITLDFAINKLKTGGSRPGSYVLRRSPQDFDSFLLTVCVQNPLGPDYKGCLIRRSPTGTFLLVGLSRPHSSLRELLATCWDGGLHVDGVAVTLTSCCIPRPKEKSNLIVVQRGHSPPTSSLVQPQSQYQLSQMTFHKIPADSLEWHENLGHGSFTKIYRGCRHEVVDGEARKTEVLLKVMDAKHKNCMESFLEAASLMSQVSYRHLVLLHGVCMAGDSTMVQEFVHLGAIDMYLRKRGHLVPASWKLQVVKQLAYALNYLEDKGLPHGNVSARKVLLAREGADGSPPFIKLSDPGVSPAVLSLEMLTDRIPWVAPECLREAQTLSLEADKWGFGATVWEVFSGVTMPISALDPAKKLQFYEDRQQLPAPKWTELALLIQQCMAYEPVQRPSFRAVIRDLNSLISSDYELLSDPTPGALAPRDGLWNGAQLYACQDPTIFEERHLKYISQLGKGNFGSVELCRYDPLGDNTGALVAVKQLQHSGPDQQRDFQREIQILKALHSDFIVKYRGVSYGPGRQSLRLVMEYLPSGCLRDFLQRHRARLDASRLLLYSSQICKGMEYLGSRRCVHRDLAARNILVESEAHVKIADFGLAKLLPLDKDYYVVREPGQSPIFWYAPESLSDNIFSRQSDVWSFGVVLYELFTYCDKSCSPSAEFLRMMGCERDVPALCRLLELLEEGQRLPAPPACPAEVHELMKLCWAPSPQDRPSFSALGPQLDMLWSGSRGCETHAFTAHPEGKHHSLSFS
How it was run: (§1)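 Recombinant human kinases in Tris pH 7.5 buffer with MgCl2, BSA and DTT (MnCl2 added for BTK), 4 ng JAK3 or 8 ng BTK per reaction. Poly(Glu4,Tyr1) 0.2 µg/µL with 5 µM (JAK3) or 10 µM (BTK) ATP, 1% DMSO, 1 h at 30 °C. ADP-Glo luminescence used to derive IC50.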

[2] = biological target: T2, Recombinant purified human BTK (Homo sapiens, UniProt Q06187); assay: BTK kinase inhibitory activity, ADP-Glo kinase assay (Promega V9071); assay type: biochemical; settings: ATP 10 uM, 8 ng BTK per reaction, 1 hour 30 °C, chemiluminescence
T2 construct: purchased Promega V9071
How it was run: as §1

T2 sequence (Q06187 whole entry): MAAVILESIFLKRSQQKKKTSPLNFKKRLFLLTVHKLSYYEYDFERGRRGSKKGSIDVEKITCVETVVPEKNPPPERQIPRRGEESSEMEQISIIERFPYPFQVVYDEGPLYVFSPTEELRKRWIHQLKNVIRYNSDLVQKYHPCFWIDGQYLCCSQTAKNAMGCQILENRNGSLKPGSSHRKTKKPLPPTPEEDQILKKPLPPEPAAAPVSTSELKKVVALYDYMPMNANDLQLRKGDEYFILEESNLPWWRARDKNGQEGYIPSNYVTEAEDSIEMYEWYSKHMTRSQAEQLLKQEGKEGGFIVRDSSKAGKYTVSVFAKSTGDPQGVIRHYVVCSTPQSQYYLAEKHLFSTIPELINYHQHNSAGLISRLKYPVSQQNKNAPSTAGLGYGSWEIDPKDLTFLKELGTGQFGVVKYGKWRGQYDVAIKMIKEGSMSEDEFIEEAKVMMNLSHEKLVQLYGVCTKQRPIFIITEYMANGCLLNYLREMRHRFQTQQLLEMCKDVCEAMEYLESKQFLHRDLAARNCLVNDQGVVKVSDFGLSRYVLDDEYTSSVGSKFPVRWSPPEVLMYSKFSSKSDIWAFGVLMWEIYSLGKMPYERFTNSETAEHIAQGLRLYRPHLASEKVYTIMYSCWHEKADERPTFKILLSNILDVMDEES

IC50 [1]	IC50 [2]	Compound
8.8 nM	2.2 nM	N#C/C(=C\C1CC1)C(=O)N1CCC[C@@H](Nc2nc(Nc3cnn(C4CC4)c3)nc3[nH]nc(Cl)c23)C1 [Example 164, (R,E)-2-(3-((3-chloro-6-((1-cyclopropyl-1H-pyrazol-4-yl)amino)-1H-pyrazolo[3,4-d]pyrimidin-4-yl)amino)piperidine-1-carbonyl)-3-cyclopropylacrylonitrile]
3.4 nM	0.721 nM	C=CC(=O)N1CCC[C@@H](Nc2nc(Nc3cnn(CC)c3)nc3[nH]nc(SC)c23)C1 [Example 189, (R)-1-(3-((6-((1-ethyl-1H-pyrazol-4-yl)amino)-3-(methylthio)-1H-pyrazolo [3,4-d]pyrimidin-4-yl)amino)piperidin-1-yl)prop-2-en-1-one]
4.5 nM	1.7 nM	C=CC(=O)N1CC[C@@H](C)[C@@H](Nc2nc(Nc3cnn(C4CC4)c3)nc3[nH]nc(Cl)c23)C1 [Example 94, 1-((3R,4R)-3-((3-chloro-6-((1-cyclopropyl-1H-pyrazol-4-yl)amino)-1H-pyrazolo[3,4-d]pyrimidin-4-yl)amino)-4-methylpiperidin-1-yl)prop-2-en-1-one]
0.3 nM	1 nM	C=CC(=O)N1CC[C@@H](F)[C@@H](Nc2nc(Nc3cnn(CC)c3)nc3[nH]ccc23)C1 [Example 76, 1-((3S,4R)-3-((2-((1-ethyl-1H-pyrazol-4-yl)amino)-7H-pyrrolo[2,3-d]pyrimidin-4-yl)amino)-4-fluoropiperidin-1-yl)prop-2-en-1-one]
1.5 nM	3.1 nM	CCn1cc(Nc2nc(S[C@@H]3CCCN(C(=O)/C(C#N)=C/C(C)C)C3)c3c(Cl)c[nH]c3n2)cn1 [Example 180, (R,E)-2-(3-((5-chloro-2-((1-ethyl-1H-pyrazol-4-yl)amino)-7H-pyrrolo[2,3-d]pyrimidin-4-yl)thio)piperidine-1-carbonyl)-4-methylpent-2-enenitrile]
1.7 nM	1.4 nM	C=CC(=O)N1CCC[C@@H](Sc2nc(Nc3cnn(C4CC4)c3)nc3[nH]nc(Cl)c23)C1 [Example 110]
0.3 nM	2.5 nM	C=CC(=O)N1CCC[C@@H](Nc2nc(Nc3cnn(CC(F)F)c3)nc3[nH]nc(Cl)c23)C1 [Example 44, (R)-1-(3-(3-chloro-6-(1-(2,2-difluoroethyl)-1H-pyrazol-4-ylamino)-1H-pyrazolo[3,4-d]pyrimidin-4-ylamino)piperidin-1-yl)prop-2-en-1-one]
1 nM	6 nM	CCn1cc(Nc2nc(S[C@@H]3CCCN(C(=O)/C(C#N)=C/C4CC4)C3)c3cc[nH]c3n2)cn1 [Example 173, (R,E)-3-cyclopropyl-2-(3-((2-((1-ethyl-1H-pyrazol-4-yl)amino)-7H-pyrrolo[2,3-d]pyrimidin-4-yl)thio)piperidine-1-carbonyl)acrylonitrile]
241 nM	2.2 nM	CCn1cc(Nc2nc(N[C@H]3CN(C(=O)/C(C#N)=C/C4CC4)CC[C@H]3C)c3c(Cl)n[nH]c3n2)cn1 [Example 169, (E)-2-((3R,4R)-3-((3-chloro-6-((1-ethyl-1H-pyrazol-4-yl)amino)-1H-pyrazolo[3,4-d]pyrimidin-4-yl)amino)-4-methylpiperidine-1-carbonyl)-3-cyclopropylacrylonitrile]
0.4 nM	1.8 nM	C=CC(=O)N1CCC[C@@H](Nc2nc(Nc3cnn(CCN(CC)CC)c3)nc3[nH]nc(Cl)c23)C1 [Example 57, (R)-1-(3-(3-chloro-6-(1-(2-(diethylamino)ethyl)-1H-pyrazol-4-ylamino)-1H-pyrazolo [3,4-d]pyrimidin-4-ylamino)piperidin-1-yl)prop-2-en-1-one]
1 nM	0.9 nM	C=CC(=O)N1CCC[C@@H](Nc2nc(Nc3cnn(C(C)(C)C)c3)nc3[nH]nc(Cl)c23)C1 [Example 53, (R)-1-(3-(6-(1-tert-butyl-1H-pyrazol-4-ylamino)-3-chloro-1H-pyrazolo[3,4-d]pyrimidin-4-ylamino)piperidin-1-yl)prop-2-en-1-one]
0.2 nM	1.7 nM	C=CC(=O)N1CCC[C@@H](Nc2nc(Nc3cnn(C4CC4)c3)nc3[nH]cc(Cl)c23)C1 [Example 62, (R)-1-(3-((5-chloro-2-((1-cyclopropyl-1H-pyrazol-4-yl)amino)-7H-pyrrolo[2,3-d]pyrimidin-4-yl)amino)piperidin-1-yl)prop-2-en-1-one]
1.1 nM	16.5 nM	C=CC(=O)N1CCC[C@@H](Nc2nc(Nc3ccc(N4CCN(C)CC4)cc3)nc3[nH]cc(Cl)c23)C1 [Example 36, (R)-1-(3-(5-chloro-2-(4-(4-methylpiperazin-1-yl)phenylamino)-7H-pyrrolo [2,3-d]pyrimidin-4-ylamino)piperidin-1-yl)prop-2-en-1-one]
1.6 nM	2.2 nM	C=CC(=O)N1CCC[C@@H](Oc2nc(Nc3cnn(C4CC4)c3)nc3[nH]nc(Cl)c23)C1 [Example 153]
0.7 nM	24 nM	C=CC(=O)N1CCC[C@@H](Nc2nc(Nc3cnoc3)nc3[nH]cc(Cl)c23)C1 [Example 96, (R)-1-(3-((5-chloro-2-(isoxazol-4-ylamino)-7H-pyrrolo[2,3-d]pyrimidin-4-yl)amino)piperidin-1-yl)prop-2-en-1-one]
3.2 nM	1.3 nM	C=CC(=O)N1CCC[C@@H](N(C)c2nc(Nc3cnn(CC)c3)nc3[nH]nc(Cl)c23)C1 [Example 118, (R)-1-(3-((3-chloro-6-((1-ethyl-1H-pyrazol-4-yl)amino)-1H-pyrazolo[3,4-d]pyrimidin-4-yl)(methyl)amino)piperidin-1-yl)prop-2-en-1-one]
0.4 nM	1 nM	C=CC(=O)N1CC[C@@H](F)[C@@H](Nc2nc(Nc3cnn(CC)c3)nc3[nH]cc(F)c23)C1 [Example 86, 1-((3S,4R)-3-((2-((1-ethyl-1H-pyrazol-4-yl)amino)-5-fluoro-7H-pyrrolo[2,3-d]pyrimidin-4-yl)amino)-4-fluoropiperidin-1-yl)prop-2-en-1-one]
42.1 nM	3 nM	CCn1cc(Nc2nc(S[C@@H]3CCCN(C(=O)/C(C#N)=C/C4CC4)C3)c3cn[nH]c3n2)cn1 [Example 176, (R,E)-3-cyclopropyl-2-(3-((6-((1-ethyl-1H-pyrazol-4-yl)amino)-1H-pyrazolo[3,4-d]pyrimidin-4-yl)thio)piperidine-1-carbonyl)acrylonitrile]
1.3 nM	14.3 nM	C=CC(=O)N1CCC[C@@H](Nc2nc(Nc3ccc(C(=O)N4CCOCC4)cc3)nc3[nH]ccc23)C1 [Example 8, (R)-1-(3-(2-(4-(morpholine-4-carbonyl)phenylamino)-7H-pyrrolo[2,3-d]pyrimidin-4-ylamino)piperidin-1-yl)prop-2-en-1-one]
0.7 nM	2.9 nM	C=CC(=O)N1CCC[C@@H](Nc2nc(Nc3cnn(C)c3)nc3[nH]nc(Cl)c23)C1 [Example 45, (R)-1-(3-(3-chloro-6-(1-methyl-1H-pyrazol-4-ylamino)-1H-pyrazolo [3,4-d]pyrimidin-4-ylamino)piperidin-1-yl)prop-2-en-1-one]
4.4 nM	1.4 nM	C=CC(=O)N1CCC[C@@H](Nc2nc(Nc3cnn(CC(F)F)c3)nc3[nH]nc(C)c23)C1 [Example 184, (R)-1-(3-((6-((1-(2,2-difluoroethyl)-1H-pyrazol-4-yl)amino)-3-methyl-1H-pyrazolo[3,4-d]pyrimidin-4-yl)amino)piperidin-1-yl)prop-2-en-1-one]
